This note sets out measurements from ChEMBL document CHEMBL1156001, “Synthesis and in vitro DMPK profiling of a 1,2-dioxolane-based library with activity against Plasmodium falciparum” (Bioorg Med Chem Lett, 2009).

Some results are limits rather than exact numbers.

A short description of one data set: Intrinsic clearance in rat liver microsomes after 10 to 45 mins by LCMS/MS analysis.
Conditions: not given
The class given is ADME, Microsome. For orientation: Liver microsomes are a subcellular fraction often used to study metabolism.
A word on the microsomal CLint: it is the capacity of the preparation to metabolise the compound, expressed as a volume cleared per time. Compound `CC1(CC(=O)NCCNc2ccnc3cc(Cl)ccc23)CC2(CCCCC2)OO1` (stereo not given) yielded a microsomal CLint above 119 µL/min/mg.

The nature of another data set: Membrane permeability at […] at pH 6.5 to 7.4 after 4 hrs by PAMPA. It is filed as ADME. As to conditions: read-out: permeability.
In the case of `CC1(CC(=O)NCCNc2ccnc3cc(Cl)ccc23)CC2(CCCCC2)OO1` (stereo not given), the Papp at 4 h worked out at 66 ×10⁻⁶ cm/s. The same measure, in the same setting: the figure for `CC1(CC(=O)NCc2ccccc2Sc2ccccc2CO)CC2(CCCCC2)OO1` (stereo not given) is 77 ×10⁻⁶ cm/s.

`COc1cccc(CNC(=O)CC2(C)CC3(CCCCC3)OO2)c1` (stereo not given): the Papp at 4 h was 65 ×10⁻⁶ cm/s. Same read-out and setting: the figure for `CC1(CC(=O)NCc2ccccc2N)CC2(CCCCC2)OO1` (stereo not given) is 37 ×10⁻⁶ cm/s; for `CC1(CC(=O)NCc2ccc3c(c2)OCC=CO3)CC2(CCCCC2)OO1` (stereo not given) it is 55 ×10⁻⁶ cm/s; for `CC1(CC(=O)NCc2ccccn2)CC2(CCCCC2)OO1` (stereo not given) it is 33 ×10⁻⁶ cm/s.

With `CC1(CC(=O)NCc2ccc([N+](=O)[O-])cc2)CC2(CCCCC2)OO1` (stereo not given), the Papp at 4 h stood at 49 ×10⁻⁶ cm/s.

Take `COC(=O)c1ccc(CNC(=O)CC2(C)CC3(CCCCC3)OO2)cc1` (stereo not given): the Papp at 4 h amounted to 57 ×10⁻⁶ cm/s. The same measure, in the same setting: the figure for `CC1(CC(=O)NCc2ccccc2N2CCCCC2)CC2(CCCCC2)OO1` (stereo not given) is 62 ×10⁻⁶ cm/s. As to `CN(C)c1ccc(CNC(=O)CC2(C)CC3(CCCCC3)OO2)cc1` (stereo not given), the Papp at 4 h is 90 ×10⁻⁶ cm/s.

For the compound `CSc1ccc(CNC(=O)CC2(C)CC3(CCCCC3)OO2)cc1` (stereo not given), the Papp at 4 h was 97 ×10⁻⁶ cm/s. On the same count and under the same terms, the figure for `CCOc1ccccc1CNC(=O)CC1(C)CC2(CCCCC2)OO1` (stereo not given) is 74 ×10⁻⁶ cm/s; for `CC1(CC(=O)NCc2ccncc2)CC2(CCCCC2)OO1` (stereo not given) it is 18 ×10⁻⁶ cm/s; for `COc1cc(CNC(=O)CC2(C)CC3(CCCCC3)OO2)cc(OC)c1` (stereo not given) it is 55 ×10⁻⁶ cm/s. On the same count and under the same terms, the result for `COc1cc(CNC(=O)CC2(C)CC3(CCCCC3)OO2)cc(OC)c1OC` (stereo not given) reads 54 ×10⁻⁶ cm/s; that for `CC1(CC(=O)NCc2ccc(-n3cccc3)cc2)CC2(CCCCC2)OO1` (stereo not given), 70 ×10⁻⁶ cm/s.

Take `CC1(CC(=O)NCc2ccc3c(c2)OCCO3)CC2(CCCCC2)OO1` (stereo not given): the Papp at 4 h worked out at 56 ×10⁻⁶ cm/s.

The next data set in a line: Octanol-PBS partition coefficient, log D at […] at pH 7.4.
Conditions: not given
The class given is physicochemical.
Usually logD stands for the decadic logarithm of the distribution of all forms, ionised or not, between an organic phase and buffer at a given pH. High values mean higher lipophilicity, low ones lower lipophilicity. `CC1(CC(=O)NCCNc2ccnc3cc(Cl)ccc23)CC2(CCCCC2)OO1` (stereo not given) returned a log distribution coefficient (logD) of 3.4. On the same count and under the same terms, the result for `CC1(CC(=O)NCc2ccccc2Sc2ccccc2CO)CC2(CCCCC2)OO1` (stereo not given) reads 4.3; that for `COc1cccc(CNC(=O)CC2(C)CC3(CCCCC3)OO2)c1` (stereo not given), 3.1. On to `CC1(CC(=O)NCc2ccc(Br)cc2F)CC2(CCCCC2)OO1` (stereo not given), for which the log distribution coefficient (logD) came out at 4.1. Same read-out and setting: the result for `CC1(CC(=O)NCc2ccc(Oc3cc(C(F)(F)F)cc(C(F)(F)F)c3)cc2)CC2(CCCCC2)OO1` (stereo not given) reads 3.2. The same measure, in the same setting: the figure for `CC1(CC(=O)NCc2ccc(OC(F)(F)F)cc2)CC2(CCCCC2)OO1` (stereo not given) is 3.2; for `CC1(CC(=O)NCc2cccc(C(F)(F)F)c2)CC2(CCCCC2)OO1` (stereo not given) it is 4; for `CC(C)(C)OC(=O)Nc1cccc(CCNC(=O)CC2(C)CC3(CCCCC3)OO2)c1` (stereo not given) it is 3.

`CC1(CC(=O)NCc2cccc(I)c2)CC2(CCCCC2)OO1` (stereo not given): the pH-dependent lipophilicity (logD) amounted to 3.5. Same read-out and setting: the result for `CC1(CC(=O)NCc2ccccc2N)CC2(CCCCC2)OO1` (stereo not given) reads 2.5; that for `CC1(CC(=O)NCc2ccc3c(c2)OCC=CO3)CC2(CCCCC2)OO1` (stereo not given), 3.1; that for `CC1(CC(=O)NCc2ccccc2OC(F)(F)F)CC2(CCCCC2)OO1` (stereo not given), 3.3.

`CC1(CC(=O)NCc2ccc(Oc3ccc(F)cc3)cc2)CC2(CCCCC2)OO1` (stereo not given) displayed a log distribution coefficient (logD) above 3.5. The same measure, in the same setting: the figure for `CC1(CC(=O)NCc2ccccn2)CC2(CCCCC2)OO1` (stereo not given) is 2.3; for `CC1(CC(=O)NCc2ccc([N+](=O)[O-])cc2)CC2(CCCCC2)OO1` (stereo not given) it is 3.4; for `CC1(CC(=O)NCc2ccc(S(N)(=O)=O)cc2)CC2(CCCCC2)OO1` (stereo not given) it is 1.4. On the same count and under the same terms, the figure for `CC1(CC(=O)NCc2cccc(Cl)c2Cl)CC2(CCCCC2)OO1` (stereo not given) is 3.4; for `CC1(CC(=O)NCc2cccc(-c3ccccc3)c2)CC2(CCCCC2)OO1` (stereo not given) it is 3.8. Same read-out and setting: the result for `CC1(CC(=O)NCc2ccc(-c3ccc(F)cc3)cc2)CC2(CCCCC2)OO1` (stereo not given) reads 4.8. Compound `CC1(CC(=O)NCc2cccc(Oc3ccc(Cl)cc3)c2)CC2(CCCCC2)OO1` (stereo not given) returned a logD of 3.2. `CC1(CC(=O)NCc2cccc(Br)c2)CC2(CCCCC2)OO1` (stereo not given) had a pH-dependent lipophilicity (logD) of 3.3. This logD and that of the compound before are within 0.2 log units of each other. Same read-out and setting: the result for `CC1(CC(=O)NCc2ccc(C(C)(C)C)cc2)CC2(CCCCC2)OO1` (stereo not given) reads 3.5; that for `CC1(CC(=O)NCc2ccc(Cl)cc2Cl)CC2(CCCCC2)OO1` (stereo not given), above 3.5. On the same count and under the same terms, the figure for `CC1(CC(=O)NCc2ccc(-c3cc(Cl)cc(Cl)c3)cc2)CC2(CCCCC2)OO1` (stereo not given) is above 3.5; for `CC1(CC(=O)NCc2ccc(C(=O)O)cc2)CC2(CCCCC2)OO1` (stereo not given) it is 0.3; for `CC1(CC(=O)NCc2cccc(Cl)c2)CC2(CCCCC2)OO1` (stereo not given) it is 3.7. In turn, `COC(=O)c1ccc(CNC(=O)CC2(C)CC3(CCCCC3)OO2)cc1` (stereo not given) came in with a pH-dependent lipophilicity (logD) of 3.4. Compound `CC1(CC(=O)NCc2ccccc2N2CCCCC2)CC2(CCCCC2)OO1` (stereo not given) came in with a logD above 3.5.

With `CC1(CC(=O)NCc2ccc(N3CCOCC3)cc2)CC2(CCCCC2)OO1` (stereo not given), the logD turned out to be 2.7. `CN(C)c1ccc(CNC(=O)CC2(C)CC3(CCCCC3)OO2)cc1` (stereo not given) displayed a logD of 3.1. On to `CSc1ccc(CNC(=O)CC2(C)CC3(CCCCC3)OO2)cc1` (stereo not given), for which the logD came to 3.7. Consider `CCOc1ccccc1CNC(=O)CC1(C)CC2(CCCCC2)OO1` (stereo not given), for which the logD came out at 3.1. For the compound `CC1(CC(=O)NCc2ccncc2)CC2(CCCCC2)OO1` (stereo not given), the log distribution coefficient (logD) is 2.1.

As to `COc1cc(CNC(=O)CC2(C)CC3(CCCCC3)OO2)cc(OC)c1` (stereo not given), the log distribution coefficient (logD) was 3.3. For the compound `COc1cc(CNC(=O)CC2(C)CC3(CCCCC3)OO2)cc(OC)c1OC` (stereo not given), the pH-dependent lipophilicity (logD) is 2.3. Same read-out and setting: the result for `CC1(CC(=O)NCc2ccc(-n3cccc3)cc2)CC2(CCCCC2)OO1` (stereo not given) reads 4.3; that for `CC1(CC(=O)NCc2ccc(-c3cccs3)cc2)CC2(CCCCC2)OO1` (stereo not given), 3.7. The same measure, in the same setting: the figure for `CC1(CC(=O)NCc2ccc(OC(F)F)cc2)CC2(CCCCC2)OO1` (stereo not given) is 3.1. `Cc1cc(Cl)ccc1CNC(=O)CC1(C)CC2(CCCCC2)OO1` (stereo not given) displayed a log distribution coefficient (logD) of 4.2. Still for that read-out and setting: the result for `CC1(CC(=O)NCc2ccc3c(c2)OCC3)CC2(CCCCC2)OO1` (stereo not given) reads 2.8; that for `CC1(CC(=O)NCc2ccc3c(c2)OCCO3)CC2(CCCCC2)OO1` (stereo not given), 2.7.

The nature of another data set: Intrinsic clearance in human liver microsomes after 10 to 45 mins by LCMS/MS analysis. The class given is ADME, Microsome.
Conditions: not given
The compound `CC1(CC(=O)NCCNc2ccnc3cc(Cl)ccc23)CC2(CCCCC2)OO1` (stereo not given) showed a microsomal CLint above 72 µL/min/mg.
